From patent US10125095B2, “Abscisic acid derivative” (NATIONAL UNIVERSITY CORPORATION SHIZUOKA UNIVERSITY, priority 2014, dated 2018)

Key:
[1] = tested on: seeds of thale cress (Arabidopsis thaliana, Col-0); experiment: Thale cress seed germination test; assay type: in vivo
Method: Seeds of thale cress (Arabidopsis thaliana, Col-0) were immersed in 500 μL of an aqueous solution of 70% ethanol for 30 minutes, subsequently in 500 μL of a 100% ethanol solution for 1 minute, washed five times in 1 mL of distilled water, then immersed in distilled water and, in a dark place, vernalized at 4° C. for 3 days. A solution of the sample in methanol was put in a 1.5 mL-microtube, and methanol was removed therefrom under reduced pressure. An aqueous solution of 0.5% agar (containing ½ MS medium inorganic salts) at 70° C. was added thereto and stirred, and subsequently the obtained mixture was placed in a 96-well plate to prepare the medium containing the sample. All samples were prepared so as to have a concentration of 3 μM of the compound in Examples 1 to 9 and Comparative Example 1. Further, when ABA is applied, the ABA concentration was adjusted to 0.3 μM. 20 to 30 vernalized seeds of thale cress were planted in each well and cultured at 22° C. under continuous light to monitor the number of seeds germinated over time. The germination rate was calculated by the following formula (1). Note that those cultured in medium prepared using methanol in the same manner were used as controls. […] Germination rate (%)=Number of seeds germinated/Number of seeds planted×100 (1)
The same test was carried out as in Test Example 1 with the concentrations of the compound of Example 1 for treatment varying from 0.3 μM to 30 μM.
Similarly, the same test was carried out with the concentrations of the compound of Example 2 for treatment varying from 0.3 μM to 30 μM.
The same test was carried out as in Test Example 2 with the concentrations of the compounds for treatment varying from 0.3 μM to 3 μM to compare the recovery effects on seed germination rate of the compound of Example 1 and the compound of Comparative Example 1.

PYR1 = target: T1, PYR1 (Arabidopsis thaliana, UniProt O49686); experiment: Protein dephosphorylation enzyme activity test, PYR1; assay type: biochemical, thale cress; conditions: control = 100%
T1 construct: 6xHis (N); made in house; host or cells: Escherichia coli BL21-codonplus(DE3)-RIPL (PYL); BL21(DE3)pLysS (HAB1)
T1 sequence (O49686 1-191): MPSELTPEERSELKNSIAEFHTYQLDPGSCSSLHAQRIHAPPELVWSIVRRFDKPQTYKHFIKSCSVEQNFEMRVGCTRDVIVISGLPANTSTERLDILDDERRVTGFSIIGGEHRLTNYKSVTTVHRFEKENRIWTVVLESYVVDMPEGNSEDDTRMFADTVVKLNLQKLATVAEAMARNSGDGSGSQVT
Method: A plasmid (pGex-2T-GST-HAB1 or pET28-6×His-PYL) encoded with PYR/PYL/RCAR proteins (PYL, abscisic acid receptor) or protein dephosphorylation enzyme HAB1 of thale cress was transformed to Escherichia coli (HAB1:BL21(DE3)pLysS, PYL:BL21-codonplus(DE3)-RIPL). Isopropyl-β-thiogalactopyranoside was added to the culture broth, which had been subjected to pre-culture (30° C., 180 rpm, 15 hours) and main culture (30° C., 180 rpm, 4 hours), and the protein-expressed (16° C., 150 rpm, 18 hours) crude enzyme solution was purified using FPLC thereby preparing the recombined PYL (PYR1, PYL1-6, PYL8-10) and HAB1. β-Mercaptoethanol, a manganese chloride aqueous solution, HAB1, PYL, a solution of the sample in dimethylsulfoxide and ultrapure water were sequentially added to a 96-well plate, allowed to stand at 22° C. for 30 minutes. Subsequently p-nitrophenylphosphate, which is the artificial substrate of HAB1, was added thereto to start the reaction, and the plate was placed in a microplate reader (TECAN, Infinite™ N200 NanoQuant). The absorbance at 405 nm due to p-nitrophenol, which is the hydrolysate of p-nitrophenylphosphate, was measured 3 minutes later from the reaction initiation, and HAB1 activity was calculated by the following formula (2). Note that the fraction to which only dimethylsulfoxide was added was considered to be the control and the activity thereof was defined as 100%. […] HAB1 specific activity (%)=Absorbance when sample was added/Absorbance of control×100 (2)

recombined PYL5 = target: T2, recombined PYL5 (Arabidopsis thaliana, UniProt Q9FLB1); experiment: Bonding affinity measurement using an isothermal titration calorimeter; assay type: binding, thale cress; conditions: ITC, 20° C., sodium phosphate buffer
T2 construct: 6xHis (N); made in house; host or cells: Escherichia coli BL21-codonplus(DE3)-RIPL
T2 sequence (Q9FLB1 1-203): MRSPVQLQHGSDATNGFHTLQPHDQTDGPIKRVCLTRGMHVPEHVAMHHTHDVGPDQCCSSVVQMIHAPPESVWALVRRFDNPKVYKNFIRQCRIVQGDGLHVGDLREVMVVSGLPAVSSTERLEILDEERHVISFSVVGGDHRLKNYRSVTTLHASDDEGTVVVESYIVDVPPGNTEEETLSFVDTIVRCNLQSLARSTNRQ
Method: A sodium phosphate buffer solution of a recombined PYL5 was prepared in the same procedure as in Test Example 5, and put in a reaction cell of an isothermal titration calorimeter (GE Healthcare, MicroCal iTC200), and a sodium phosphate buffer solution of the compound of Example 1 was put in the syringe. Then, the calorimeter was set to 20° C. and the measurement was carded out. The same measurement as above was also carried out for the compounds of Examples 7 to 9.

[2] = 3 μM compound co-applied with 0.3 μM ABA

Row | Compound | HAB1 Specific activity (%) PYR1 (PYR1; ABA + compound) [%] | HAB1 Specific activity (%) PYR1 (PYR1; sample alone) [%] | Kd (recombined PYL5) [nM] | ΔG (recombined PYL5) [kcal/mol] | ΔH (recombined PYL5) [kcal/mol] | −TΔS (recombined PYL5) [kcal/mol] | Germination rate (%) 24 Hours later [1, 2] [%] | Germination rate (%) 36 Hours later [1, 2] [%] | Germination rate (%) 48 Hours later [1, 2] [%] | Germination rate (%) 60 Hours later [1, 2] [%] | Germination rate (%) 24 Hours later ([1]; compound alone, 3 μM) [%] | Germination rate (%) 36 Hours later ([1]; compound alone, 3 μM) [%] | Germination rate (%) 48 Hours later ([1]; compound alone, 3 μM) [%] | Germination rate (%) 60 Hours later ([1]; compound alone, 3 μM) [%]
1 | C#CCO[C@@H]1C=C(C)[C@](O)(/C=C/C(C)=C\C(=O)O)C(C)(C)C1 [Example 3, (2Z,4E)-5-((1S,4S)-1-hydroxy-2,6,6-trimethyl-4-(prop-2-yn-1-yloxy)cyclohex-2-en-1-yl)-3-methylpenta-2,4-dienoic acid] |  |  |  |  |  |  | 0 | 6.9 | 20.7 | 48.3 | 0 | 13.3 | 60 | 71.1
2 | COc1ccc(C#CCO[C@@H]2C=C(C)[C@](O)(/C=C/C(C)=C\C(=O)O)C(C)(C)C2)cc1 [Example 5, (2Z,4E)-5-((1S,4S)-1-hydroxy-2,6,6-trimethyl-4-((3-(4-methoxy)phenylprop-2-yn-1-yl)oxy)cyclohex-2-en-1-yl)-3-methylpenta-2,4-dienoic acid] | 50.5 | 92.3 |  |  |  |  | 0 | 30 | 67 | 100 | 5 | 37 | 79 | 95
3 | CC1=C[C@@H](OCC#Cc2ccc(C(F)(F)F)cc2)CC(C)(C)[C@@]1(O)/C=C/C(C)=C\C(=O)O [Example 4, (2Z,4E)-5-((1S,4S)-1-hydroxy-2,6,6-trimethyl-4-((3-(4-trifluoromethyl)phenylprop-2-yn-1-yl)oxy)cyclohex-2-en-1-yl)-3-methylpenta-2,4-dienoic acid] | 36.7 | 55.4 |  |  |  |  | 0 | 29 | 58 | 100 | 8 | 33 | 75 | 92

Further lines, with some results ahead:

Row | HAB1 Specific activity (%) PYR1 (PYR1; ABA + compound) [%] | HAB1 Specific activity (%) PYR1 (PYR1; sample alone) [%] | Kd (recombined PYL5) [nM] | ΔG (recombined PYL5) [kcal/mol] | ΔH (recombined PYL5) [kcal/mol] | −TΔS (recombined PYL5) [kcal/mol] | Compound | Germination rate (%) 24 Hours later [1, 2] [%] | Germination rate (%) 36 Hours later [1, 2] [%] | Germination rate (%) 48 Hours later [1, 2] [%] | Germination rate (%) 60 Hours later [1, 2] [%] | Germination rate (%) 24 Hours later ([1]; compound alone, 3 μM) [%] | Germination rate (%) 36 Hours later ([1]; compound alone, 3 μM) [%] | Germination rate (%) 48 Hours later ([1]; compound alone, 3 μM) [%] | Germination rate (%) 60 Hours later ([1]; compound alone, 3 μM) [%]
4 | 62.9 | 105 | 180 ± 10 | -9.0 ± 0.1 | -4.9 ± 0.1 | -4.1 | CC1=C[C@@H](OCC#Cc2ccc(S(F)(F)(F)(F)F)cc2)CC(C)(C)[C@@]1(O)/C=C/C(C)=C\C(=O)O [Example 8] | 0 | 0 | 23 | 89 | 0 | 60 | 100 | 100
5 | 32.1 | 87.8 | 360 ± 70 | -8.6 ± 0.1 | -6.7 ± 0.1 | -2.0 | CC1=C[C@@H](OCCCc2ccccc2)CC(C)(C)[C@@]1(O)/C=C/C(C)=C\C(=O)O [Example 9] | 0 | 60 | 100 | 100 | 1 | 88 | 100 | 100
6 | 41.5 | 87.9 |  |  |  |  | CC(=O)c1ccc(C#CCO[C@@H]2C=C(C)[C@](O)(/C=C/C(C)=C\C(=O)O)C(C)(C)C2)cc1 [Example 6, (2Z,4E)-5-((1S,4S)-1-hydroxy-2,6,6-trimethyl-4-((3-(4-acetyl)phenylprop-2-yn-1-yl)oxy)cyclohex-2-en-1-yl)-3-methylpenta-2,4-dienoic acid] | 7 | 28 | 52 | 72 | 0 | 17 | 75 | 92
